# Assays:
# Format in all cases: biochemical
# [1] = biological target: T1, Lck (Homo sapiens, UniProt P06239); test: Kinase inhibition assay (33P transfer), Lck; details: Table 3; read-out: Lck-1
# T1 construct: Kinases are expressed as either kinase domains or full length constructs; made in house
# How it was run: (§1)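 Each kinase, expressed as a GST- or polyHis-tagged domain or full-length protein, phosphorylated plate-attached poly(Glu,Tyr) 4:1 or poly(Arg,Ser) 3:1 using 33P-ATP. Bound radioactivity was measured by scintillation after a 0.5% phosphoric acid wash.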
# [2] = biological target: T2, Lyn (Homo sapiens, UniProt P07948); test: Kinase inhibition assay (33P transfer), Lyn; details: Table 6, Lyn-1 kinase inhibition class
# T2 construct: Kinases are expressed as either kinase domains or full length constructs; made in house
# How it was run: (§2)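 Each enzyme, purified to near homogeneity by affinity chromatography, was incubated with ATP carrying 33P and a substrate polymer fixed to the plate. Unbound label was removed with dilute phosphoric acid (0.5%) before adding scintillant and counting. Potency is given as the compound level cutting label uptake by 50%.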
# [3] = biological target: T3, Zap-70 (Homo sapiens, UniProt P43403); test: Kinase inhibition assay (33P transfer), Zap-70; details: Table 3; read-out: Zap-1
# T3 construct: Kinases are expressed as either kinase domains or full length constructs; made in house
# T3 sequence (P43403 1-619): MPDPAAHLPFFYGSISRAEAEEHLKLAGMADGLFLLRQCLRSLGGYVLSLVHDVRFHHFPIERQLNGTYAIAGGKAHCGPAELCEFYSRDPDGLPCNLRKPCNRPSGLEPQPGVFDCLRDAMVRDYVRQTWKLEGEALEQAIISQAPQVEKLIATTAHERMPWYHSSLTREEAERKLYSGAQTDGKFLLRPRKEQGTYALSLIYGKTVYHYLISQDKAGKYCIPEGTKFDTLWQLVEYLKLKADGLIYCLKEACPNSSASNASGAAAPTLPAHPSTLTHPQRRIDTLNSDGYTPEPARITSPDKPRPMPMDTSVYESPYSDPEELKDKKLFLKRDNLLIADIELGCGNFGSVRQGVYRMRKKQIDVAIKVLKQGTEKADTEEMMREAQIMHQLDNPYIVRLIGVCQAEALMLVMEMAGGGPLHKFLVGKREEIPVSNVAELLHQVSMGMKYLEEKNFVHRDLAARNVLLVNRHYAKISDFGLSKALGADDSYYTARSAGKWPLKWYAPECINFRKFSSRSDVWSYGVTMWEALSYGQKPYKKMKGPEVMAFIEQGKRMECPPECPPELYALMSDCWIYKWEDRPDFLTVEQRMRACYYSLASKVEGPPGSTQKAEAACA
# How it was run: as §1
# [4] = biological target: T4, Kdr (Homo sapiens, UniProt P35968); test: Kinase inhibition assay (33P transfer), Kdr; details: Table 3; read-out: KDR-1
# T4 construct: Kinases are expressed as either kinase domains or full length constructs; made in house
# How it was run: as §1
# [5] = biological target: T5, Flt-1 (Homo sapiens, UniProt P17948); test: Kinase inhibition assay (33P transfer), Flt-1
# T5 construct: Kinases are expressed as either kinase domains or full length constructs; made in house
# How it was run: as §2
# [6] = biological target: T6, Tek (Homo sapiens, UniProt Q02763); test: Kinase inhibition assay (33P transfer), Tek; details: read-out: Tek-1
# T6 construct: Kinases are expressed as either kinase domains or full length constructs; made in house
# How it was run: as §2
# [7] = biological target: T7, AKT (Homo sapiens, UniProt Q9Y243); test: Kinase inhibition assay (33P transfer), AKT; details: Table 2, kinase inhibition class; read-out: AKT3-1
# T7 construct: Kinases are expressed as either kinase domains or full length constructs; made in house
# How it was run: as §1
# [8] = biological target: T8, PDGFRB (Homo sapiens, UniProt P09619); test: Kinase inhibition assay (33P transfer), PDGFRB; details: read-out: PDGFRB-1
# T8 construct: Kinases are expressed as either kinase domains or full length constructs; made in house
# [9] = biological target: T9, Ret-1 (Homo sapiens, UniProt P07949); test: Kinase inhibition assay (33P transfer), Ret; details: Table 6, Ret-1 kinase inhibition class
# T9 construct: Kinases are expressed as either kinase domains or full length constructs; made in house
# [10] = biological target: T10, FGFR1 (Homo sapiens, UniProt P11362); test: Kinase inhibition assay (33P transfer), FGFR1; details: read-out: FGFR1-1
# T10 construct: Kinases are expressed as either kinase domains or full length constructs; made in house
# T10 sequence (P11362 22-822, species assumed): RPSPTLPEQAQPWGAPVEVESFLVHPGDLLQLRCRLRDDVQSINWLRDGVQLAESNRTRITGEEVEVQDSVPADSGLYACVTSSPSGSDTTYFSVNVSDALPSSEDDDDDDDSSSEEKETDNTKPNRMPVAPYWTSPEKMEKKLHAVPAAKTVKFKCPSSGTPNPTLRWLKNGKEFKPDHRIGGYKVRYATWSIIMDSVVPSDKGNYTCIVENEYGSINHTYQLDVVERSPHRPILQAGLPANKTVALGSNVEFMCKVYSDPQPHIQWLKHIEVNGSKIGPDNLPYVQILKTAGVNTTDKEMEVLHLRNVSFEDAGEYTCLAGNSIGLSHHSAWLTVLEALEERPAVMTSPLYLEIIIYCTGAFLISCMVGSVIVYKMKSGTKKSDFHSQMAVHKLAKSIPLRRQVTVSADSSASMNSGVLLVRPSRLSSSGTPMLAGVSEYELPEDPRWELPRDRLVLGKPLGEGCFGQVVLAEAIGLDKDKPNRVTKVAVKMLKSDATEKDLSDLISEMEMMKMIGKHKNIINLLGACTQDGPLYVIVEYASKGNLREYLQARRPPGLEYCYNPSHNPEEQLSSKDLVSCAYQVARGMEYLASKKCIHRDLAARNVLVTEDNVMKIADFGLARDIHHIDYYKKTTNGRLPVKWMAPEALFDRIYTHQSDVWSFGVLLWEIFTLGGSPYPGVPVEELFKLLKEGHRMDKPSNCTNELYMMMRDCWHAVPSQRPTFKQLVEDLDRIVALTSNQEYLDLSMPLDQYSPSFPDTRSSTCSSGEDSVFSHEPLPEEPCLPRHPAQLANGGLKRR
# T1 sequence (P06239 whole entry, species assumed, the tested form may be a part): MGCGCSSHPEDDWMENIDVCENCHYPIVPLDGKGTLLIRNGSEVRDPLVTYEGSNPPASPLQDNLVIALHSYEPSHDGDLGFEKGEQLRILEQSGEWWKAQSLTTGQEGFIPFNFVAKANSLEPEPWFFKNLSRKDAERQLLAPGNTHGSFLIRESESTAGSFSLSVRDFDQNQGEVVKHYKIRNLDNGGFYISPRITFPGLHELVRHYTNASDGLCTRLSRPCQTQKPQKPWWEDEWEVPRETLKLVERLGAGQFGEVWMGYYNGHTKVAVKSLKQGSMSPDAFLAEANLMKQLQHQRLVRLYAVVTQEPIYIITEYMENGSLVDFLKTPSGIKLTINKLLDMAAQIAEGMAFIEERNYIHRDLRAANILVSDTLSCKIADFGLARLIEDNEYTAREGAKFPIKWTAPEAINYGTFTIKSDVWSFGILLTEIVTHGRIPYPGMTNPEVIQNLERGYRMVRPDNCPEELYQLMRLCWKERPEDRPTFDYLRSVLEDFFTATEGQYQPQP
# T4 sequence (P35968 20-1356, species assumed): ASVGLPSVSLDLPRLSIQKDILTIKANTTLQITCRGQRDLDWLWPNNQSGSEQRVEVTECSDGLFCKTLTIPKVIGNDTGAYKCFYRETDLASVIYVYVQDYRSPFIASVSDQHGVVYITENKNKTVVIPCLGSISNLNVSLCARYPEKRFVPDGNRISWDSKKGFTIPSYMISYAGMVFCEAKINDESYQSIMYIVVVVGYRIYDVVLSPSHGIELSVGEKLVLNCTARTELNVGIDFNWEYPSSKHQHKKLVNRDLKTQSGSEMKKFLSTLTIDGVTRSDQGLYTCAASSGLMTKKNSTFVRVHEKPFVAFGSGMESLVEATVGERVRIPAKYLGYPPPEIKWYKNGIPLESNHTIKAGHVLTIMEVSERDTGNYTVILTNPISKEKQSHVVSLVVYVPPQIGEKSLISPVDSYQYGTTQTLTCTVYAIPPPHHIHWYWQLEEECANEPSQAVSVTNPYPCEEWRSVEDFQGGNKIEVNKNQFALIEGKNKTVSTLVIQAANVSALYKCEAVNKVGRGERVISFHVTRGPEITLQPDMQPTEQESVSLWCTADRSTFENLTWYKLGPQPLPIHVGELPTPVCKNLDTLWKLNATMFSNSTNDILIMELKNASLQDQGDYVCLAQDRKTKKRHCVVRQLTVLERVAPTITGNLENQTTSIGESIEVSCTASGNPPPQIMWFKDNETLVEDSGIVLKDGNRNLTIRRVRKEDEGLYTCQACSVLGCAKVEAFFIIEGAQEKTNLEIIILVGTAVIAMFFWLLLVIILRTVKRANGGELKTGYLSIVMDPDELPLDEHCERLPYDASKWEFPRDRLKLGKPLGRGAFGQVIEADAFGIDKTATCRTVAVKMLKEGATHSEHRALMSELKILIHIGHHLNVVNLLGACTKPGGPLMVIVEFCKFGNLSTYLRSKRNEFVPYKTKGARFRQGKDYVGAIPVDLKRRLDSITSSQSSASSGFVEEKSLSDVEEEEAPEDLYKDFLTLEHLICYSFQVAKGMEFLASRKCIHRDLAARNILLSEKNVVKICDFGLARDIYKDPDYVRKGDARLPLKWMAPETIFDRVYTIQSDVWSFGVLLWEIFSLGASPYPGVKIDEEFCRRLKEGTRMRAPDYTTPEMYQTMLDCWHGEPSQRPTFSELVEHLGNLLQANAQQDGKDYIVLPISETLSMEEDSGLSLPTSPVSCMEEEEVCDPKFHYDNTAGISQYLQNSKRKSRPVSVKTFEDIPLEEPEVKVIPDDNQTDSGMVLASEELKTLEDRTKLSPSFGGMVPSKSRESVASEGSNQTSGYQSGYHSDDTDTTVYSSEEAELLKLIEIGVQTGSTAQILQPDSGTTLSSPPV
# T6 sequence (Q02763 23-1124, species assumed): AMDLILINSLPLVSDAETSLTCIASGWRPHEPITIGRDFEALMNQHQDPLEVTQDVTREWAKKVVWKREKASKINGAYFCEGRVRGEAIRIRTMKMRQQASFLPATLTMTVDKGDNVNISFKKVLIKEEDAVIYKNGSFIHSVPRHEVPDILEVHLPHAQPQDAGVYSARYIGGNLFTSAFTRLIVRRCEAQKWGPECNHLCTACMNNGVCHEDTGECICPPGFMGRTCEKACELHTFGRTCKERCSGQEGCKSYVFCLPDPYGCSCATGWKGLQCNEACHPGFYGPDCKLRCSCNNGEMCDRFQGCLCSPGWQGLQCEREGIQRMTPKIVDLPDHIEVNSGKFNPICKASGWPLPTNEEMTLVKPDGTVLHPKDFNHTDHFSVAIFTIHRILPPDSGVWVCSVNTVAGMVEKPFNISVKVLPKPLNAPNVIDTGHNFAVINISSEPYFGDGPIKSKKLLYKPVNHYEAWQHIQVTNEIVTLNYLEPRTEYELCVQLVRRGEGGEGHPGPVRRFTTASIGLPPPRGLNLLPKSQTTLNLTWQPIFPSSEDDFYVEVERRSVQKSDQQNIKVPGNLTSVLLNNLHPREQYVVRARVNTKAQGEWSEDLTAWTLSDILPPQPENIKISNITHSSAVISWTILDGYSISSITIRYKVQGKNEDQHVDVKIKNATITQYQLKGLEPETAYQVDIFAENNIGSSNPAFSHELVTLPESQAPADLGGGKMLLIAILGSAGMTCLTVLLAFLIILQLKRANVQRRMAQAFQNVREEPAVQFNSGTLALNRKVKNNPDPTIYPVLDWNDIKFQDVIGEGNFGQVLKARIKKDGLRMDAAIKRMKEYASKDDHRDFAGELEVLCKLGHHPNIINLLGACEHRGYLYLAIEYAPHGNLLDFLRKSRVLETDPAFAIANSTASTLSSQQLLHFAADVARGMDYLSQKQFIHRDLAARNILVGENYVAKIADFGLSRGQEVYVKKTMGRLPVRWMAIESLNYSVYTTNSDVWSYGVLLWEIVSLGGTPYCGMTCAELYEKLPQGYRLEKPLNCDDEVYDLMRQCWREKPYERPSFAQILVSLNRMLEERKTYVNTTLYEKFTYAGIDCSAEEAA
# T9 sequence (P07949 29-1114): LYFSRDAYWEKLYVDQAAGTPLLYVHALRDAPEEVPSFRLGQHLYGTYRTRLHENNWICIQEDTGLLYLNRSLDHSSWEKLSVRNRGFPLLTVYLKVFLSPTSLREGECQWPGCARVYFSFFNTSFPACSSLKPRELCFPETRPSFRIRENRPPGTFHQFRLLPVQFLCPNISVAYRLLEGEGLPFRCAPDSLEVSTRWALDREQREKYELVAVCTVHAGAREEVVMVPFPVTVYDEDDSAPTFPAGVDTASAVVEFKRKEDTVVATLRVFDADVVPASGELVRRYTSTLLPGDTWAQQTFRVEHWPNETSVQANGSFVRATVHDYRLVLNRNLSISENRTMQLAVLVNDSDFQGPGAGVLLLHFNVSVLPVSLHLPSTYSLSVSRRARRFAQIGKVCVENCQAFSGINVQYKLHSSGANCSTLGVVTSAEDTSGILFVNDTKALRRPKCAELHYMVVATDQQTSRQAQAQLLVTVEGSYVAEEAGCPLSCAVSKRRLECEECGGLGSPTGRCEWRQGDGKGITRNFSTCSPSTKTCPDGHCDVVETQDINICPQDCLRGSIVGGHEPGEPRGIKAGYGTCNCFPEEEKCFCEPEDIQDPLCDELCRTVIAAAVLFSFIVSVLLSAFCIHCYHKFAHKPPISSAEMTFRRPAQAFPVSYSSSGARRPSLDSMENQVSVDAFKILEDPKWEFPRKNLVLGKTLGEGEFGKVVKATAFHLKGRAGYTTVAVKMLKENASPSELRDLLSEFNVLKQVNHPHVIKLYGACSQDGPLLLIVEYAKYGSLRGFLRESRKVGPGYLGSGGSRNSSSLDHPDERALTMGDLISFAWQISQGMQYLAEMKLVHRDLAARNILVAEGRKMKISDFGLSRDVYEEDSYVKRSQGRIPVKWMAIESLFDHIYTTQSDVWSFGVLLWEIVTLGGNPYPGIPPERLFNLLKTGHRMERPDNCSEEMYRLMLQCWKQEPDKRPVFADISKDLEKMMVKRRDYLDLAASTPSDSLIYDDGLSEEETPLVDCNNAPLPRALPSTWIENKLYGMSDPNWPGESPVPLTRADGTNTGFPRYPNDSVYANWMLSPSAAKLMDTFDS
Structure (SMILES),IC50 [1],IC50 [2],IC50 [3],IC50 [4],IC50 [5],IC50 [6],IC50 [7],IC50 [8],IC50 [9],IC50 [10]
COc1cc(Nc2ncnc(N3CCc4ccccc43)n2)cc(OC)c1OC [Compound 184],1.05 to 6.33 µM,1.05 to 6.33 µM,> 11.9 µM,< 1.05 µM,< 1.05 µM,> 11.9 µM,> 11.9 µM,< 1.05 µM,> 11.9 µM,6.33 to 9.22 µM
COc1cc(Nc2ncnc(-n3cnc4ccccc43)n2)cc(OC)c1OC [Compound 186],1.06 to 6.34 µM,9.25 to 11.9 µM,> 11.9 µM,< 1.06 µM,1.06 to 6.34 µM,9.25 to 11.9 µM,> 11.9 µM,< 1.06 µM,> 11.9 µM,> 11.9 µM
COc1cc(Nc2ncnc(N3CCc4cc([N+](=O)[O-])ccc43)n2)cc(OC)c1OC [Compound 187],> 10.6 µM,> 10.6 µM,> 10.6 µM,0.942 to 5.65 µM,> 10.6 µM,> 10.6 µM,> 10.6 µM,> 10.6 µM,> 10.6 µM,> 10.6 µM
COc1ccc2c(ccn2-c2ncnc(Nc3cc(OC)c(OC)c(OC)c3)n2)c1 [Compound 196],> 11 µM,5.89 to 8.59 µM,> 11 µM,< 0.982 µM,0.982 to 5.89 µM,> 11 µM,> 11 µM,< 0.982 µM,> 11 µM,5.89 to 8.59 µM
COc1cc(Nc2ncnc(-n3ccc4cc(Cl)ccc43)n2)cc(OC)c1OC [Compound 198],> 10.9 µM,> 10.9 µM,> 10.9 µM,0.971 to 5.83 µM,0.971 to 5.83 µM,> 10.9 µM,> 10.9 µM,< 0.971 µM,> 10.9 µM,> 10.9 µM
COc1cc(Nc2ncnc(-n3ccc4cc(OCc5ccccc5)ccc43)n2)cc(OC)c1OC [Compound 200],7.24 to 9.31 µM,> 9.31 µM,> 9.31 µM,4.96 to 7.24 µM,> 9.31 µM,> 9.31 µM,> 9.31 µM,0.827 to 4.96 µM,> 9.31 µM,7.24 to 9.31 µM
COc1cc(Nc2ncnc(-n3ccc4c(OC)cccc43)n2)cc(OC)c1OC [Compound 238],> 11 µM,> 11 µM,> 11 µM,0.982 to 5.89 µM,> 11 µM,> 11 µM,> 11 µM,0.982 to 5.89 µM,> 11 µM,> 11 µM
COc1cc2ccn(-c3ncnc(Nc4cc(OC)c(OC)c(OC)c4)n3)c2cc1OC [Compound 239],> 10.3 µM,> 10.3 µM,> 10.3 µM,0.914 to 5.49 µM,> 10.3 µM,> 10.3 µM,> 10.3 µM,> 10.3 µM,> 10.3 µM,> 10.3 µM
COc1cc(Nc2ncnc(-n3ncc4ccccc43)n2)cc(OC)c1OC [Compound 240],1.06 to 6.34 µM,1.06 to 6.34 µM,> 11.9 µM,1.06 to 6.34 µM,1.06 to 6.34 µM,> 11.9 µM,> 11.9 µM,< 1.06 µM,6.34 to 9.25 µM,6.34 to 9.25 µM
COc1ccc(Nc2ncnc(-n3c(N)nc4ccccc43)n2)cc1O [Compound 286],1.14 to 6.87 µM,> 12.9 µM,> 12.9 µM,< 1.14 µM,< 1.14 µM,1.14 to 6.87 µM,6.87 to 10 µM,1.14 to 6.87 µM,< 1.14 µM,< 1.14 µM
COc1cc(Nc2ncnc(Nc3ccc(C)c(F)c3)n2)cc(OC)c1OC [Compound 300],1.04 to 6.23 µM,< 1.04 µM,> 11.7 µM,< 1.04 µM,> 11.7 µM,9.08 to 11.7 µM,> 11.7 µM,< 1.04 µM,1.04 to 6.23 µM,6.23 to 9.08 µM
COCCOc1ccc(Nc2ncnc(-n3c(N)nc4ccccc43)n2)cc1OCCOC [Compound 302],> 9.97 µM,> 9.97 µM,> 9.97 µM,0.886 to 5.32 µM,> 9.97 µM,> 9.97 µM,> 9.97 µM,> 9.97 µM,> 9.97 µM,0.886 to 5.32 µM
COc1cc(Nc2ncnc(Nc3nnc(-c4ccccc4)[nH]3)n2)cc(OC)c1OC [Compound 311],> 10.7 µM,> 10.7 µM,> 10.7 µM,0.951 to 5.71 µM,> 10.7 µM,> 10.7 µM,> 10.7 µM,> 10.7 µM,> 10.7 µM,> 10.7 µM
COc1cc(Nc2ncnc(Nc3cc(C(C)(C)C)[nH]n3)n2)cc(OC)c1OC [Compound 313],1 to 6.01 µM,< 1 µM,> 11.3 µM,1 to 6.01 µM,6.01 to 8.76 µM,> 11.3 µM,> 11.3 µM,1 to 6.01 µM,1 to 6.01 µM,1 to 6.01 µM

# Further lines, results first:
IC50 [1],IC50 [2],IC50 [3],IC50 [4],IC50 [5],IC50 [6],IC50 [7],IC50 [8],IC50 [9],IC50 [10],Structure (SMILES)
0.999 to 5.99 µM,5.99 to 8.74 µM,> 11.2 µM,< 0.999 µM,5.99 to 8.74 µM,0.999 to 5.99 µM,> 11.2 µM,< 0.999 µM,5.99 to 8.74 µM,> 11.2 µM,COc1ccc(Sc2ncnc(Nc3cc(OC)c(OC)c(OC)c3)n2)cc1 [Compound 175]
0.971 to 5.83 µM,5.83 to 8.5 µM,8.5 to 10.9 µM,< 0.971 µM,8.5 to 10.9 µM,> 10.9 µM,> 10.9 µM,> 10.9 µM,5.83 to 8.5 µM,5.83 to 8.5 µM,COc1cc(Nc2ncnc(-n3ccc4ccc(Cl)cc43)n2)cc(OC)c1OC [Compound 237]
< 1.01 µM,< 1.01 µM,> 11.3 µM,< 1.01 µM,< 1.01 µM,> 11.3 µM,> 11.3 µM,1.01 to 6.04 µM,> 11.3 µM,1.01 to 6.04 µM,COc1cc(Nc2ncnc(Nc3ccc4c(c3)OCO4)n2)cc(OC)c1OC [Compound 252]
0.982 to 5.89 µM,> 11 µM,> 11 µM,< 0.982 µM,> 11 µM,> 11 µM,> 11 µM,> 11 µM,> 11 µM,0.982 to 5.89 µM,COCCOc1ccc(Nc2ncnc(-n3c(N)nc4ccccc43)n2)cc1OC [Compound 287]
0.94 to 5.64 µM,< 0.94 µM,8.23 to 10.6 µM,< 0.94 µM,< 0.94 µM,0.94 to 5.64 µM,> 10.6 µM,< 0.94 µM,< 0.94 µM,< 0.94 µM,COc1cc(Nc2ncnc(N3c4ccc(F)cc4CCC3C)n2)cc(OC)c1OC (centres unmarked) [Compound 298]
0.869 to 5.21 µM,< 0.869 µM,> 9.77 µM,< 0.869 µM,0.869 to 5.21 µM,> 9.77 µM,> 9.77 µM,< 0.869 µM,< 0.869 µM,0.869 to 5.21 µM,COc1cc(Nc2ncnc(Nc3ccc(C)c(NS(C)(=O)=O)c3)n2)cc(OC)c1OC [Compound 305]
0.986 to 5.91 µM,< 0.986 µM,> 11.1 µM,< 0.986 µM,0.986 to 5.91 µM,> 11.1 µM,> 11.1 µM,< 0.986 µM,< 0.986 µM,0.986 to 5.91 µM,COc1cc(Nc2ncnc(Nc3ccc(Cl)cc3F)n2)cc(OC)c1OC [Compound 306]
0.977 to 5.86 µM,< 0.977 µM,> 11 µM,< 0.977 µM,< 0.977 µM,5.86 to 8.55 µM,8.55 to 11 µM,< 0.977 µM,< 0.977 µM,< 0.977 µM,COc1cc(Nc2ncnc(Nc3cc(-c4ccco4)n[nH]3)n2)cc(OC)c1OC [Compound 308]
< 1 µM,< 1 µM,> 11.3 µM,< 1 µM,1 to 6.01 µM,1 to 6.01 µM,> 11.3 µM,1 to 6.01 µM,> 11.3 µM,6.01 to 8.76 µM,COc1cc(Nc2ncnc(N3CCCC4CCCCC43)n2)cc(OC)c1OC (centres unmarked) [Compound 314]
